From US20140099354A1, “BIOPASSIVATING MEMBRANE STABILIZATION BY MEANS OF NITROCARBOXYLIC ACID-CONTAINING PHOSPHOLIPIDS IN PREPARATIONS AND COATINGS” (priority 2011, published 2014)

What was measured:
[1] = Abrasion stability and traction work load of coated balloon catheters; type: physicochemical
Procedure: Balloon catheters were coated by means of the Langmuir-Schaefer procedure where the balloon segment was aligned longitudinally and coaxial to the solution surface, dipping into the liquid for approx. 1 mm over the entire length. Then the catheter was slowly rotated around its axis 5 times. Phospholipids were dissolved at a concentration of 3 mmol in an ion-free aqueous solution at 50° C. The solution was cooled and given to the coating solution then. In case of incomplete dissolution of the phospholipids or if they separated when cooled, DMSO was added at a concentration of up to 20 vol.-%, preferably up to 10 vol.-%. After coating, the catheters were vacuum dried for 8 hours in order to remove residual solvent.
The tubing was filled with a 10% human albumin solution at a temperature of 35° C. The cable system, which had previously been brought through the tubing was connected to the catheter tip and tracked outside the tubing by reversing pulleys, which allowed exactly vertically traction of the cable that was connected to a motorized winch. The winch was mounted on a digital precision balance. The catheters mounted in this manner were pulled through the tubing system and the weight changes measured by the balance, which represented the traction work load achieved for the passage of the catheter, was recorded continuously. These readings were integrated over time. The resultant values allow estimation of the total shear force that occurred during the passage of the catheter through the tubing system.
The abrasion or loss of coating layers was determined by weighing the catheter before and after coating as well as after the mechanical stability test in the tubing system as described above using a high precision balance.

sciatic nerve = test: Viability of cryopreserved nerve grafts (Annexin-V staining, FACS); type: cell-based, rats; conditions: 100 mmolar solution 1 hour; −30° C. 72 hours
[2] = system: Murine macrophages (RAW 264.7)
Description: The survival rate and cytokine production of adhering macrophages were examined to evaluate the bio-passivating properties of various nitro-carboxylic acid containing phospholipids.
Templates made of glass were coated with nitro-carboxylic acid-containing and native phosphatidylcholines and with an admixture of 50% phosphatidylcholine and phosphatidyletholamine, as described in example 2. […] The glass slides were placed in Teflon bowl, uncoated slides served as control. Murine macrophages (RAW 264.7) were cultured to a cell density of 5×10^5. Cell suspensions were added to the culture dishes, so that macrophages could attach on the slides under standard culture conditions for 24 to 48 hours. […] The cell survival rate was investigated using an MTT assay.

ovarian tissue strips [3] = test: Cryopreservation of ovarian tissue strips: intact follicles; conditions: liquid nitrogen 14 days, cultured 14 days
Procedure: (§1) Ovar ectomy was performed in female sheep; resected tissues were cut into 60 ovarian tissue strips. The ovarian strips were either cultured directly (n=4) or prepared with a usual solution for vitrification (VS group; Vitrification Kit, Sage, USA) or incubated with nitrated PLs (NPL group). For this purpose, the tissue strips were bathed in an equibrilation solution (ART-8025-A) which consisted of MOPS-buffered amino acids and gentamicin sulfate (10 mg/l), and 7.5% (v/v) of each DMSO and ethylene glycol and 12 mg/ml human serum albumin for 30 minutes. Thereafter the strips of the VS group were placed in the vitrification solution (ART-8025-B), which is a MOPS-buffered solution containing amino acids and gentamicin sulfate, that contain 15% (v/v) each DMSO and ethylenglycol, 12 mg/ml human albumin and 0.6 M sucrose. The strips of the NPL group were placed in a solution containing 25% (v/v) nitrated PL SNOPC or PNLPC in a PBS-buffered 1% DMSO solution containing 5% human albumin for 60 minutes. The treated tissue strips were then immersed into liquid nitrogen and kept here for 14 days. Then removal and warming of the tissue pieces was performed in AIM-V medium (Gibco, Invitrogen) in a sterile culture dish, first up to 5° C. within 20 minutes, then heated further in a water bath up to 37° C., within the following 60 minutes. The culture medium was replaced and specimens cultured for 14 days. After this, the tissue pieces were fixed, embedded in paraffin and cut, followed by histological examination. […] The total number of intact follicles in the control group was taken as a reference to the number of follicles in the cryopreserved groups.
(§2) The culture medium has been exchanged by every 2nd day; samples for hormone analysis were taken and frozen at that time. Determination of 17 β-estradiol and progesterone were performed with a radio-immuno assay (diagnostic systems laboratories, USA).

[4] = system: Cardiac muscle cells derived from neonatal rat heart; test: Hypoxia of cardiac muscle cells (viability, mitochondrial NAD+); type: cell-based; conditions: for mitochondrial NAD+ content: hypoxia, baseline 5
Procedure: Cardiac muscle cells derived from neonatal rat heart (Nitobe J, et al, Reactive oxygene species regulate FLICE inhibitory protein and susceptibility to FAS-mediated apoptosis in cardiac myocytes. Cardiovasc RES 2003, 119-28). The heart muscle cells were cultured in Dulbecco/Eagle medium (DMEM) with 10% FCS added under standard conditions for two days. Incubation with the natural and nitrated phospholipids, as well as the hypoxia experiments were carried out as described above. Incubated cells were grown in culture medium under standard conditions for 24 hours. This is followed by a vitality staining as described above. […] The frozen cells were thawed up to -4° C. and homogenized for subsequent NAD^+ analyses. By means of differential centrifuge, pellets containing mitochondria were separated (Di Lisa, et al, 1993; Am. J. Physiol. 264, […]-[…]). The NAD^+ content was determined by fluoroscopy, and normalized to the protein content (Veloso, D., and […]., 1974;) Anal. Biochem., 449-450).

[5] = system: Heart muscle cells from rabbit hearts; test: Cytosolic Ca2+ concentration in heart muscle cells (fluo-4 fluorescence); type: cell-based
Procedure: Heart muscle cells were taken from rabbit hearts according to a method described elsewhere (Shannon T R, Ginsburg K S, Bers D M. Quantitative assessment of the SRCa^2+ leak-load relationship. Circ Res. 2002; 91:594-600). The prepared cells were cultured for 72 hours.
The cytosolic Ca^2+ concentrations were determined with fluo-4 fluorescence. Therefore the cells were incubated with 10 μmol fluo-4 AM (1%) for 30 minutes and washed thereafter three times with PBS. The cells were stimulated in a Tryode solution on a platinum electrode with a frequency of 0.5 Hz over 20 cycles. Then the ambient medium was changed and an electrolyte-free colloidal solution was added. Determination of the Ca concentration was performed after each series of stimulation over 20 cycles. Calcium content was estimated by the use of confocal laser scanning microscopy (Olympus). At least 10 cells per experiment were evaluated in a post-systolic interval of 1000 ms. The measurements were repeated at least three times. β-adrenergic stimulation was performed with 250 nmol/L isoproterenol, which was given to the medium.

TRPV1, 2 and 4, TRPA1 = test: Inducible ion current of TRP receptors in Xenopus oocytes (voltage clamp); type: cell-based, rat; conditions: 50 mmol/l, 10 and 60 minutes
Procedure: An established in-vitro model of Xenopus oocytes (Dascal N, 1987 The use of Xenopus oocytes. CRC critical reviews in biochemistry 22, 317-387) was used to study the influence of incubation with PL on ion channels regulated by membrane receptors. Defolliculized oocytes were transfected with cRNA (rat) of TRPV1, 2 and 4, as well as of TRPA1, stored in tissue culture plates and incubated in culture medium (ND 96) at 15° C. under constant motion in the incubator for 7 to 10 days.
Induced leakage currents through activation of the TRP receptors was determined by means of double electrode voltage-clamp technique (Ahern G P, Brooks I M, Miyares R L &Wang X B, 2005, Extracellular cations sensitize and gate capsaicin receptor TRPV1 modulating pain signalling. J Neurosci 25, 5109-5116). Ooocytes were probed with borosilicate glass capillaries (Clark) and connected to a feedback amplifier (Gene clamp Amplifier, Axon instruments). The membrane potential of oocytes was clamped to −60 or −90 mV. The presence of a directive […] current was compared to non-transfected controls. The investigations were performed in a miniature organ bath in calcium-free buffered (Hepes, pH 7.3) NaCl solution. The TRPV1 receptor excitation was initiated by rapidly changing of the bath solution against a capsaicin solution (10 μmol). Results of non-pretreated oocytes were used for normative comparison of subsequent measurements of incubatesd cells. Investigations with incubated cells were carried out in the same way for oocytes transfected with the TRPV2, and TRPV4 and TRPA1 receptors, wherein the receptor agonists cannabidiol (10 μmol) and 4α-PDD (4α-phorbol 12,13-didecanoate, 50 μmol) and innamaldehyde (50 μmol) were used instead of capsaicin.

[6] = Tissue response to coated silicone implants in vivo after bleomycin; set-up: species or system Wistar rats; conditions: silicone cushions, subcutaneous, 7 to 90 days
Procedure: Induction of fibrotic tissue production by connective tissue activation as a consequence of implantation of foreign material was examined in an in-vivo animal model. As implant materials, sterile silicone cushions having a diameter of 1 cm were used.
In male Wistar rats (190-240 g) that were fed and housed under identical conditions for one week, general anaesthesia was performed by intramuscular injection of 0.008 mL/100 g ketamine and 0.004 mL/100 g xylocaln chloride 2%. Then the back of the animals was shaved, sterilized and infiltrated with xylocalne chloride. A paravertebral incision was made on both sides with a length of 1.5 cm followed by preparation of the subcutaneous tissue, so that on both sides approx. 2×2 cm cavities were preformed. Hemostasis was achieved by cauterization, if necessary. Then balls of cotton saturated with Bleomycin (cell-pharm GmbH, Hannover, Germany: 1% in 0.9% NaCl solution) were inserted into the cavities for 3 minutes and then removed. Without rinsing the cavities, the implants coated with a nitrated phospholipid were inserted into the cavity on the left side and the implants coated with natural phospholipid into the cavity on the right side. Thereafter, a layer by layer wound closure was performed and a sterile adhesive bandage was applied.
The animals were kept according to standard conditions for 7, 14, 30, 60 and 90 days. At any study time endpoint, two animals were euthanized. After death the well visible and palpable implants were removed using en-block resection technique. The resected specimens were fixed and embedded in paraffin. Then they were cut in half and the liquid silicone was removed. The specimens were embedded again and cut into thin slices which were stained with H & E and Sirius red, and evaluated by light microscopy. Evaluation was done according to the following criteria:
A1: none; A2: occasional monocytic cells or lymphocytes; A3: moderate numbers or groups of monocytic cells or lymphocytes; A4: dense infiltration of monocytes, eosinophils, or giant cells.
B1: none; B2: collagen-rich layer around the implant; B3: thick (>1 mm) and dense collagen-rich tissue formation around the implant.
In every 10th serial section 10 fields of view uniformly distributed over the circumference of the implant were evaluated and the herein predominant expression was assigned to an event table. In total, 200 fields of view were analyzed per implant

ovarian tissue strips [7] = test: Cryopreservation of ovarian tissue strips: 17 β-estradiol and progesterone (radio-immuno assay); type: cell-based, sheep; conditions: after cryopreservation and culture
Procedure: as §1, §2

[8] = molecular target: Glycophorin A (GpA) peptides (Homo sapiens, UniProt P02724); conditions: 10-50% (mol/mol) admixed to DSPC vesicles; versus native phospholipids
Procedure: The change of the Frster resonance energy transfer (FRET) of fluorescence-labelled peptides with α helical trans-membrane structure in a double lipid layer can be used for determination of the concentration of monomeric and dimeric trans-membrane helices and for quantitative determination of helix-helix interactions.
FRET measurements were carried out with fluorescence-marked Glycophorin A (GpA) peptides. The transmembrane GpA forms dimers, whereby the energy transfer can be measured. 5-carboxyfluorescein and tetramethyl-6-carboxyrhodamine were used as chromophores.
Degree of dimerization of the model protein was measured in a direct comparison between native phospholipids and the corresponding phospholipids with a nitrated alkyl chain for the given concentrations of phospholipids (10-50%, mol/mol) admixed to the DSPC vesicles.
For determination of the dimerization, the peptides of FL GpAwt and TAMRA GpAwt were weighed and dissolved in TFE. The measurements were carried out on a fluorescence spectrometer of type Aminco Bowman series 2 (Thermo Spectronic).

cortical neurons = test: Hypoxia and reperfusion of cortical neurons (viability, LDH)
Procedure: To determine whether the membrane-stabilizing properties of nitrated phospholipids can lead to attenuation of effects due to an ischemic event or the re-perfusion damage, cortical neurons and cardiac myocytes were investigated.
Freshly prepared cortex tissue was separated with Papain and tissue suspensions were cultured in culture vessels (Prim ARA; BD Biosciences, USA) with Neurobasal A/B27 medium (Invitrogen) for 10-12 days. Cell suspensions were divided, and replenished with suspensions of the natural phospholipids SOPC and PLPC, as well as the analogue phospholipids with nitration of unsaturated fatty acids (1-stearoyl-2-(9-nitrooleoyl)-sn-PC and 1-palmitoyl-2-(9-nitrolinoleoyl)-sn-PC) at concentrations of 10 to 50 μmol/l in NaCl (0.9%) were added. […] After 4 hours, the cells were washed three times with buffered saline and buffered NaCl solution with the addition of MgCl2 and CaCl2 in an anaerobic atmosphere (85% N2, 5% O2, 10% CO2; at 35° C.) for 10 and 30 minutes. Then, the cells were washed once and grown in culture medium under aerobic conditions for 24 hours. […] Cells were stained with annexin V-FITC and propidium iodide (Molecular probes, USA). The vital and necrotic cells were measured by flow cytometry (FACSCalibur, Becton & Dickinson). The volume of culture medium was determined and an aliquot was taken for determination of the LDH (lactate dehydrogenase) concentration.

Human red blood cells = test: Erythrocyte membrane stability (osmotic, mechanical, storage); type: cell-based; conditions: 30 mmol/l, incubated for an hour
Procedure: The physico-chemical properties of cell membranes determine their strength of resistance to physical, chemical and immunological alterations. Human red blood cells and mast cells from mice dissolved in solutions of physiological NaCl containing the natural phospholipids SOPC and PLPC or the analogue nitrated phospholipids (1-stearoyl-2-(9-nitrooleoyl)-sn-PC (example P14) and 1-palmitoyl-2-(9-nitrolinoleoyl)-sn-PC) (example P7) at a concentration of 30 mmol/l were incubated for an hour in order to assess the effects of an up-take of phospholipids into the cell membranes with respect to resistance to external alterations. Similarly, cells incubated with mixtures of nitro-carboxylic acid (s)-containing phospholipids according to examples N2-N14, F, Q, S, O3-O6, P1-P3 and P6 were investigated.
For assessment of osmotic stability, cells were separated from serum by centrifugation first and then cleaned three times with physiological NaCl solution. […] After incubation for 30 minutes under the above described conditions, the tubes were centrifuged and an aliquot was taken for photometric measurement of hemoglobin by absorbance at a wavelength of 546 nm at a temperature of 30° C.
For the examinations of mechanical stability, erythrocytes were prepared according to the procedure above. […] Then, the samples were centrifuged and supernatants were analyzed as stated above. […]

Glycophorin A (GpA) peptides, sequence (P02724 92-114 limits assumed, species assumed): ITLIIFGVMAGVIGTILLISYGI

Q: Which “mechanical removal of coating substance and workload to pull the catheter through PTFE tubing” value (from here on “mechanical removal”) [1] does the source give for CCCCCCCC/C=C(\CCCCCCCC(=O)OC[C@H](COP(=O)([O-])OCC[N+](C)(C)C)OC(=O)CCCCCCCCCCCCCCC)[N+](=O)[O-] [Example Q, 1-(9-Nitrooleoyl)-2-(palmitoyl)-sn-3-glycero-phosphocholine] here?
A: The value was “Very similar results”.

Q: What about the “proportion of living cells relative to non-frozen control” value (sciatic nerve) of the same compound?
A: Its value is 80%.

Q: What about the “viability of adhering macrophages” value [2] of the same compound?
A: Its value is 95-98%.

Q: What about the “rate of intact follicles relative to the control group” value (ovarian tissue strips [3]) of the same compound?
A: Its value is 96%.

Q: Which “loss of viability of heart muscle cells after hypoxia” value ([4]; (10 minutes)) does the source give for CCCCCCCC/C=C(\CCCCCCCC(=O)O[C@H](COC(=O)CCCCCCCCCCCCCCCCC)COP(=O)([O-])OCC[N+](C)(C)C)[N+](=O)[O-] [Example P14, 1-stearoyl-2-(E-9-nitrooleoyl)-sn-3-glycerophosphocholine] here?
A: The value was 6%.

Q: And the “loss of viability of heart muscle cells after hypoxia” value ([4]; (30 minutes))?
A: Its value is 16%.

Q: And the “mitochondrial NAD+ content” value ([4]; first printed value)?
A: The value was 3.8 nmol/mg protein.

Q: And the “mitochondrial NAD+ content” value ([4]; second printed value)?
A: Its value is 3.3 nmol/mg protein.

Q: What about the “end of diastole (ED) cytosolic calcium” value ([5]; after hypoxia) of the same compound?
A: The value was 80 nmol/L.

Q: And the “post systolic (PS) cytosolic calcium” value ([5]; after hypoxia)?
A: Its value is 40 nmol.

Q: What about the “end of diastole (ED) cytosolic calcium” value ([5]; after hypoxia and stimulation with isoproterenol) of the same compound?
A: The value was 90 nmol/L.

Q: And the “end of diastole (ED) cytosolic calcium” value ([5]; normoxic conditions)?
A: The value was 30 nmol/L.

Q: And the “post systolic (PS) cytosolic calcium” value ([5]; normoxic conditions)?
A: The value was 10 nmol.

Q: And the “inducible membrane channel activity of TRP channels” value (“inducible membrane channel activity” for short) (TRPV1, 2 and 4, TRPA1)?
A: The value was “significant decrease of inducible membrane channel activity”.

Q: What about the “biocompatibility of coated implants compared to natural PLs” value [6] of the same compound?
A: Its value is “improved biocompatibility of implants several-fold”.

Q: And the estradiol (ovarian tissue strips [7])?
A: The estradiol was 8.6 ng/mL.

Q: What about the progesterone (ovarian tissue strips [7]) of the same compound?
A: Its progesterone is 0.6 ng/mL.

Q: What about the “proportion of living cells relative to non-frozen control” value (sciatic nerve) of the same compound?
A: The value was 86%.

Q: And the “degree of dimerization of the model membrane protein” value [8]?
A: The value was “significantly greater reduction of dimerization”.

Q: What about the “rate of intact follicles relative to the control group” value (ovarian tissue strips [3]) of the same compound?
A: Its value is 96%.

Q: And the “increase in LDH versus normoxemia culture” value (cortical neurons; 10-minutes ischemia)?
A: The value was 120 fold.

Q: What about the “viability of cortical cells measured after 24 hours” value (cortical neurons; 10-minutes ischemia) of the same compound?
A: The value was 68%.

Q: And the “increase in LDH versus normoxemia culture” value (cortical neurons; 30-minutes ischemia)?
A: Its value is 230 fold.

Q: And the “viability of cortical cells measured after 24 hours” value (cortical neurons; 30-minutes ischemia)?
A: The value was 54%.

Q: Which “mechanical removal” value [1] does the source give for CCCCCCCC/C=C(\CCCCCCCC(=O)O[C@H](COC(=O)CCCCCCCCCCCCCCC)COP(=O)(O)OCCN)[N+](=O)[O-] [Example S, 1-Palmitoyl-2-(E-9-nitrooleoyl)-sn-3-glycero-phosphatidylethanolamine] here?
A: Its value is “Very similar results”.

Q: And the erythrocyte membrane stability (Human red blood cells)?
A: The erythrocyte membrane stability was “very similar values as the nitrated phosphocholines”.

Q: And the “inducible membrane channel activity” value (TRPV1, 2 and 4, TRPA1)?
A: The value was “significant decrease of inducible membrane channel activity”.

Q: What about the “proportion of living cells relative to non-frozen control” value (sciatic nerve) of the same compound?
A: Its value is 85%.

Q: With CCCCCCCCC=C(CCCCCCCC(=O)OC[C@H](COP(=O)(O)OC1C(O)C(O)C(O)C(O)C1O)OC(=O)CCCCCCCC(=CCCCCCCCC)[N+](=O)[O-])[N+](=O)[O-] (stereo partly drawn) [Example F, 1,2-di-(9-nitrooleoyl)-sn-3-glycerophosphatidylinositol] as the compound, how does the “mechanical removal” value [1] read?
A: The value was “Very similar results”.

Q: What about the erythrocyte membrane stability (Human red blood cells) of the same compound?
A: Its erythrocyte membrane stability is “very similar values as the nitrated phosphocholines”.

Q: And the “inducible membrane channel activity” value (TRPV1, 2 and 4, TRPA1)?
A: Its value is “significant decrease of inducible membrane channel activity”.

Q: And the “biocompatibility of coated implants compared to natural PLs” value [6]?
A: Its value is “improved biocompatibility of implants several-fold”.

Q: And the “proportion of living cells relative to non-frozen control” value (sciatic nerve)?
A: The value was 88%.
